Reference: patent US20110318298A1, “VIRAL INFECTION THERAPEUTIC DRUG CONTAINING POLYALKYLENEIMINE” (Nippon Shokubai Co., Ltd., priority 2008, published 2011)
≈ marks a conversion by molar mass, not a printed value. Where two headings read alike, the source gives them in different places.

What was measured:
HSV-2 [1] = assay: Comparison of SP-012 and acyclovir in HSV-2-infected mice (Example 9); conditions: for Number of death/total number: 0.2 mg per administration to the genital until seven days after infection, 15 days observation; for Number of HSV-2 positive mouse/total number: genital wash, first day to 12 days after infection
Method: Five to six-week-old female BALB/c mice were locally (genital) inoculated with HSV-2 in an amount of 20 μl (containing a reduced viral amount of 1×10^4 PFU per mouse in consideration of tracing also untreated control mice). […] From the first day to 12 days after the viral infection, the genital was washed with phosphate-buffered physiological saline every day, and the amount of virus therein was measured in each mouse. Also, for 15 days, the severity of the development of the disease and the case of death were recorded.

HSV-2 [2] = assay: Anti-viral activity on HSV-2, plaque assaying in Vero cells; conditions: Human alphaherpesvirus 2, Vero
HSV-2 [3] = assay: Inhibitory effect on HSV-2 virus invasion of the cells (Vero cells, 37° C.); type: cell-based, herpes simplex virus type 2; conditions: for Amount of virus invaded in 30 minutes / Amount of virus invaded in 3 hours: Vero cells, 37° C., control = 100%
From the text: Subsequently, the inhibitory effect of polyethyleneimine in the stage in which HSV-2 adsorbed to the host cells invades the cells was investigated.

HSV-2 [4] = assay: Inhibitory effect on HSV-2 virus adsorption to the cells (Vero cells, 4° C.); conditions: for Amount of virus adsorbed to host cells: Vero cells, 4° C. one hour, control = 100%
in vitro = conditions: African green monkey
Method: A test for evaluation of the cytotoxicity of polyethyleneimine in each cell was carried out according to the following procedure.
The cell proliferation count was then measured by trypan blue staining.

MDCK cells = assay: Cytotoxicity (CC50), cell count by trypan blue staining, MDCK cells; type: cell-based, dog

Compound: polyethyleneimine [SP-200]
- Cytotoxicity (CC50) (Vero cells): 0.0045 µg/mL

Compound: Nc1nc2c(ncn2COCCO)c(=O)[nH]1 [Acyclovir, acyclovir]
- Number of death/total number (HSV-2 [1]): 0/10
- Number of death/total number (HSV-2 [1]; listed as acyclovir): No mice died
- Development of the disease (genital inflammation) (HSV-2 [1]; 0.2 mg per administration, 10 mice): transient inflammation
- Number of HSV-2 positive mouse/total number (HSV-2 [1]; 0.2 mg per administration): 1/10
- Number of HSV-2 positive mouse/total number (HSV-2 [1]; 0.2 mg per administration, listed as acyclovir): the virus was detected in one out of 10 mice
- IC50 (HSV-2 [2]; read-out: Anti-viral activity (IC50) A): 0.91 µg/mL (≈ 4.04 µM)
- IC50 (HSV-2 [2]; read-out: Anti-viral activity (IC50) B): 0.92 µg/mL (≈ 4.09 µM)
- Amount of virus invaded in 30 minutes (HSV-2 [3]; 1 μg/ml): 99%
- Amount of virus invaded in 30 minutes (HSV-2 [3]; 10 μg/ml): 94%
- Amount of virus invaded in 30 minutes (HSV-2 [3]; 100 μg/ml): 87%
- Amount of virus invaded in 3 hours (HSV-2 [3]; 100 μg/ml): 89%
- Amount of virus invaded in 30 minutes (HSV-2 [3]; 1000 μg/ml): 68%
- Amount of virus invaded in 3 hours (HSV-2 [3]; 1000 μg/ml): Toxic
- Amount of virus invaded in 30 minutes (HSV-2 [3]; 10000 μg/ml): Toxic
- Amount of virus invaded in 3 hours (HSV-2 [3]; 10000 μg/ml): Toxic
- Inhibition of viral invasion, overall finding (HSV-2 [3]; over the tested concentrations): did not inhibit HSV-2 virus invasion of the cells
- Amount of virus adsorbed to host cells (HSV-2 [4]; 100 μg/ml): 76%
- Amount of virus adsorbed to host cells (HSV-2 [4]; 1000 μg/ml): Toxic
- Amount of virus adsorbed to host cells (HSV-2 [4]; 10000 μg/ml): Toxic
- Inhibition of viral adsorption, overall finding (HSV-2 [4]; over the tested concentrations): almost no dose-dependent adsorption-inhibitory effect
- CC50 at 72 h (in vitro): 890 µg/mL (≈ 3950 µM)

Compound: polyethyleneimine [SP-006]
- Cytotoxicity (CC50) (MDCK cells): 0.57 μl/ml
- Cytotoxicity (CC50) (Vero cells): 1.1 μl/ml

Compound: polyethyleneimine [SP-018]
- Cytotoxicity (CC50) (MDCK cells): 0.064 μl/ml
- Cytotoxicity (CC50) (Vero cells): 0.057 μl/ml

Compound: polyethyleneimine [SP-003]
- Cytotoxicity (CC50) (MDCK cells): 0.057 μl/ml
- Cytotoxicity (CC50) (Vero cells): 0.071 μl/ml

Compound: polyethyleneimine [SP-012]
- Cytotoxicity (CC50) (MDCK cells): 0.34 μl/ml

Compound: polyethyleneimine [P-1000]
- Cytotoxicity (CC50) (Vero cells): 0.0044 μl/ml
